Assay results from PMC6749389, “Synthesis and In Vitro Anti-Toxoplasma gondii Activity of Novel Thiazolidin-4-one Derivatives” (Molecules, 2019).

Legend:
[1] = Cytotoxic assay (MTT, ISO 10993-5:2009(E)), 24 h treatment; format: cell-based; conditions: L929 mouse fibroblast cells, L929 mouse fibroblasts, values above highest tested concentration extrapolated
Method: The L929 mouse fibroblast (ATTC® CCL-1™, Manassas, VA, USA) were culturing according to the ATCC product sheet. […] The cell viability assay were performed precisely according to international standards (ISO 10993-5:2009(E)), using the tetrazolium salt [3-(4,5-dimethylthiazol-2-yl)-2,5-diphenyltetrazolium bromide] (MTT, Sigma-Aldrich) and mouse fibroblasts L929 cells. Cells (1 × 10^4 per well) were treated 24 h with compounds or drug in different concentration range. The optical density at 570 nm on the ELISA reader (Multiskan EX, Labsystems, Vienna, VA, USA), was read. The results were expressed as a percentage of viability compared to untreated cells. […] The CC30/CC50 represents the concentration of tested compounds or drugs that was required for 30% or 50% cells proliferation inhibition in vitro. According to the previously mentioned ISO 10993-5:2009(E) norm, the CC30 value is recognized as non-cytotoxic concentration for the cell line. All experiments were performed in triplicate.

| melting point [°C] | Compound | CC50 at 24 h [1] [µM] |
| --- | --- | --- |
| 235 to 236 | O=C1CSC(=NN=Cc2cccc(O)c2)N1c1ccccc1 [Compound 42, 2-{[(3-Hydroxyphenyl)methylidene]hydrazinylidene}-3-phenyl-1,3-thiazolidin-4-one] | 234 |
| 229 to 230 | CCOc1cc(C=NN=C2SCC(=O)N2c2ccccc2)ccc1O [Compound 45, 2-{[(3-Ethoxy-4-hydroxyphenyl)methylidene]hydrazinylidene}-3-phenyl-1,3-thiazolidin-4-one] | – |
| 215 to 216 | O=C1CSC(=NN=Cc2ccc(O)c(Cl)c2)N1c1ccccc1 [Compound 46, 2-{[(3-Chloro-4-hydroxyphenyl)methylidene]hydrazinylidene}-3-phenyl-1,3-thiazolidin-4-one] | – |
| 216 to 218 | O=C1CSC(=NN=Cc2ccc(O)c(Br)c2)N1c1ccccc1 [Compound 47, 2-{[(3-Bromo-4-hydroxyphenyl)methylidene]hydrazinylidene}-3-phenyl-1,3-thiazolidin-4-one] | – |
| 168 to 170 | O=C1CSC(=NN=Cc2ccccc2O)N1c1ccccc1Cl [Compound 48, 3-(2-Chlorophenyl)-2-{[(2-hydroxyphenyl)methylidene]hydrazinylidene}-1,3-thiazolidin-4-one] | – |
| 192 to 194 | O=C1CSC(=NN=Cc2cccc(O)c2)N1c1ccccc1Cl [Compound 49, 3-(2-Chlorophenyl)-2-{[(3-hydroxyphenyl)methylidene]hydrazinylidene}-1,3-thiazolidin-4-one] | 188 |
| 178 to 180 | O=C1CSC(=NN=Cc2ccc(O)cc2)N1c1ccccc1Cl [Compound 50, 3-(2-Chlorophenyl)-2-{[(4-hydroxyphenyl)methylidene]hydrazinylidene}-1,3-thiazolidin-4-one] | 226 |
| 196 to 198 | CCOc1cc(C=NN=C2SCC(=O)N2c2ccccc2Cl)ccc1O [Compound 51, 3-(2-Chlorophenyl)-2-{[(3-ethoxy-4-hydroxyphenyl)methylidene]hydrazinylidene}-1,3-thiazolidin-4-one] | – |
| 194 to 196 | O=C1CSC(=NN=Cc2ccccc2O)N1c1cccc(Cl)c1 [Compound 52, 3-(3-Chlorophenyl)-2-{[(2-hydroxyphenyl)methylidene]hydrazinylidene}-1,3-thiazolidin-4-one] | – |
| 198 to 200 | O=C1CSC(=NN=Cc2cccc(O)c2)N1c1cccc(Cl)c1 [Compound 53, 3-(3-Chlorophenyl)-2-{[(3-hydroxyphenyl)methylidene]hydrazinylidene}-1,3-thiazolidin-4-one] | 113 |
| 262 to 264 | O=C1CSC(=NN=Cc2ccc(O)cc2)N1c1cccc(Cl)c1 [Compound 54, 3-(3-Chlorophenyl)-2-{[(4-hydroxyphenyl)methylidene]hydrazinylidene}-1,3-thiazolidin-4-one] | 289 |
| 230 to 232 | O=C1CSC(=NN=Cc2cccc(O)c2)N1c1ccc(Cl)cc1 [Compound 58, 3-(4-Chlorophenyl)-2-{[(3-hydroxyphenyl)methylidene]hydrazinylidene}-1,3-thiazolidin-4-one] | 173 |
| 140 to 142 | COc1cc(C=NN=C2SCC(=O)N2c2ccc(Cl)cc2Cl)ccc1O [Compound 64, 3-(2,4-Dichlorophenyl)-2-{[(4-hydroxy-3-methoxyphenyl)methylidene]hydrazinylidene}-1,3-thiazolidin-4-one] | – |
| 242 to 244 | O=C1CSC(=NN=Cc2cccc(O)c2)N1c1ccc(Br)cc1 [Compound 65, 3-(4-Bromophenyl)-2-{[(3-hydroxyphenyl)methylidene]hydrazinylidene}-1,3-thiazolidin-4-one] | 83.5 |
| 204 to 206 | O=C1CSC(=NN=Cc2cccc(O)c2)N1c1ccc(F)cc1 [Compound 68, 3-(4-Fluorophenyl)-2-{[(3-hydroxyphenyl)methylidene]hydrazinylidene}-1,3-thiazolidin-4-one] | 180 |

The remaining lines, values behind:

| Compound | melting point [°C] | CC50 at 24 h [1] [µM] |
| --- | --- | --- |
| O=C1CSC(=NN=Cc2ccc(O)cc2)N1c1ccccc1 [Compound 43, 2-{[(4-Hydroxyphenyl)methylidene]hydrazinylidene}-3-phenyl-1,3-thiazolidin-4-one] | – | 485 |
| COc1cc(C=NN=C2SCC(=O)N2c2cccc(Cl)c2)ccc1O [Compound 55, 3-(3-Chlorophenyl)-2-{[(4-hydroxy-3-methoxyphenyl)methylidene]hydrazinylidene}-1,3-thiazolidin-4-one] | 210 to 212 | – |
| CCOc1cc(C=NN=C2SCC(=O)N2c2cccc(Cl)c2)ccc1O [Compound 56, 3-(3-Chlorophenyl)-2-{[(3-ethoxy-4-hydroxyphenyl)methylidene]hydrazinylidene}-1,3-thiazolidin-4-one] | 214 to 216 | – |
| O=C1CSC(=NN=Cc2ccccc2O)N1c1ccc(Cl)cc1 [Compound 57, 3-(4-Chlorophenyl)-2-{[(2-hydroxyphenyl)methylidene]hydrazinylidene}-1,3-thiazolidin-4-one] | 238 to 240 | – |
| O=C1CSC(=NN=Cc2ccc(O)cc2)N1c1ccc(Cl)cc1 [Compound 59, 3-(4-Chlorophenyl)-2-{[(4-hydroxyphenyl)methylidene]hydrazinylidene}-1,3-thiazolidin-4-one] | 280 to 282 | 318 |
| COc1cc(C=NN=C2SCC(=O)N2c2ccc(Cl)cc2)ccc1O [Compound 60, 3-(4-Chlorophenyl)-2-{[(4-hydroxy-3-methoxyphenyl)methylidene]hydrazinylidene}-1,3-thiazolidin-4-one] | 226 to 228 | – |
| CCOc1cc(C=NN=C2SCC(=O)N2c2ccc(Cl)cc2)ccc1O [Compound 61, 3-(4-Chlorophenyl)-2-{[(3-ethoxy-4-hydroxyphenyl)methylidene]hydrazinylidene}-1,3-thiazolidin-4-one] | 218 to 220 | – |
| O=C1CSC(=NN=Cc2ccc(O)c(Cl)c2)N1c1ccc(Cl)cc1 [Compound 62, 2-{[(3-Chloro-4-hydroxyphenyl)methylidene]hydrazinylidene}-3-(4-chlorophenyl)-1,3-thiazolidin-4-one] | 231 to 233 | – |
| O=C1CSC(=NN=Cc2ccc(O)c(Br)c2)N1c1ccc(Cl)cc1 [Compound 63, 2-{[(3-Bromo-4-hydroxyphenyl)methylidene]hydrazinylidene}-3-(4-chlorophenyl)-1,3-thiazolidin-4-one] | 235 to 236 | – |
| O=C1CSC(=NN=Cc2ccc(O)cc2)N1c1ccc(Br)cc1 [Compound 66, 3-(4-Bromophenyl)-2-{[(4-hydroxyphenyl)methylidene]hydrazinylidene}-1,3-thiazolidin-4-one] | 288 to 290 | 247 |
| O=C1CSC(=NN=Cc2ccc(O)cc2)N1c1ccc(F)cc1 [Compound 69, 3-(4-Fluorophenyl)-2-{[(4-hydroxyphenyl)methylidene]hydrazinylidene}-1,3-thiazolidin-4-one] | – | 386 |
| COc1cc(C=NN=C2SCC(=O)N2c2ccc(F)cc2)ccc1O [Compound 70, 3-(4-Fluorophenyl)-2-{[(4-hydroxy-3-methoxyphenyl)methylidene]hydrazinylidene}-1,3-thiazolidin-4-one] | 236 to 238 | – |
| CCOc1cc(C=NN=C2SCC(=O)N2c2ccc(F)cc2)ccc1O [Compound 71, 2-{[(3-Ethoxy-4-hydroxyphenyl)methylidene]hydrazinylidene}-3-(4-fluorophenyl)-1,3-thiazolidin-4-one] | 240 to 242 | – |
| O=C1CSC(=NN=Cc2ccc(O)c(Cl)c2)N1c1ccc(F)cc1 [Compound 72, 2-{[(3-Chloro-4-hydroxyphenyl)methylidene]hydrazinylidene}-3-(4-fluorophenyl)-1,3-thiazolidin-4-one] | 222 to 224 | – |
| O=C1CSC(=NN=Cc2ccc(O)c(Br)c2)N1c1ccc(F)cc1 [Compound 73, 2-{[(3-Bromo-4-hydroxyphenyl)methylidene]hydrazinylidene}-3-(4-fluorophenyl)-1,3-thiazolidin-4-one] | 224 to 226 | – |
| O=C(O)CC1SC(=NN=Cc2ccccc2O)N(c2ccccc2)C1=O (centres unmarked) [Compound 74, [2-{[(2-Hydroxyphenyl)methylidene]hydrazinylidene}-4-oxo-3-phenyl-1,3-thiazolidin-5-yl]acetic acid] | 228 to 230 | 501 |
| O=C(O)CC1SC(=NN=Cc2cccc(O)c2)N(c2ccccc2)C1=O (centres unmarked) [Compound 75, [2-{[(3-Hydroxyphenyl)methylidene]hydrazinylidene}-4-oxo-3-phenyl-1,3-thiazolidin-5-yl]acetic acid] | 214 to 216 | ≥ 1000 |
| O=C(O)CC1SC(=NN=Cc2ccc(O)cc2)N(c2ccccc2)C1=O (centres unmarked) [Compound 76, [2-{[(4-Hydroxyphenyl)methylidene]hydrazinylidene}-4-oxo-3-phenyl-1,3-thiazolidin-5-yl]acetic acid] | 236 to 238 | ≥ 1000 |
| COc1cc(C=NN=C2SC(CC(=O)O)C(=O)N2c2ccccc2)ccc1O (centres unmarked) [Compound 77, [2-{[(4-Hydroxy-3-methoxyphenyl)methylidene]hydrazinylidene}-4-oxo-3-phenyl-1,3-thiazolidin-5-yl]acetic acid] | – | ≥ 1000 |
